“And” between values parts separate entries of the source, which are not always exact repeats. Identical values can stand only once. The source made the active and inactive calls.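 How the source made its calls: active means compounds giving half or more protection of infected cells from virus-caused growth loss, again on retest; inactive means the rest.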 Where a SMILES comes first, the peptide text is derived from it. The star is where a group is joined. Boc = CC(C)(C)OC(=O)*
Tested on: CEM cells HIV-1 protection, formazan growth assay
Test: NCI AIDS Antiviral Assay
Conditions: for IC50: measured here: growth of uninfected CEM cells
Procedure, shortened: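 Category rules: moderately active means at least 50% protection on retest, and confirmed active means 100% protection reproducibly. The underlying data came from a formazan growth assay in HIV-1-infected CEM cells.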

| SMILES | EC50 | IC50 | outcome |
| --- | --- | --- | --- |
| COc1ccc(N2C(=O)[C@H]3[C@H]4CC(C(C)(C)C)CC[C@H]4c4c(n(C)c5ccccc45)[C@H]3C2=O)cc1 (stereo partly drawn) | > 15.1 µM | > 15.1 µM |  |
| COCCOCOC(CCCCO)c1cc(C)c(O[Si](C)(C)C(C)(C)C)c(C)c1 (stereo not drawn) | > 50.1 µM | 4.9 µM |  |
| O=S(=O)(O)c1ccc2c(N=Nc3ccc(/C=C/c4ccc(N=Nc5c(O)ccc6cc(S(=O)(=O)O)ccc56)cc4S(=O)(=O)O)c(S(=O)(=O)O)c3)c(O)ccc2c1 | 7.76 µM | 97.7 µM |  |
| CSc1nc(=S)[nH]c2c1c(C)nn2-c1ccccc1 | > 200 µM | 28.8 µM |  |
| O=Cc1[nH]c(=O)[nH]c(=O)c1CO | > 200 µM | 93.3 µM |  |
| CCCCNC(C)(C)C(SSSC(C)=O)c1ccco1 (stereo not drawn) | > 200 µM | 56.2 µM |  |
| ClCc1nn(-c2ccccc2)c(CCl)c1CCl | > 200 µM | 1.23 µM |  |
| Cc1nc(N)c(N2CCN(S(N)(=O)=O)CC2)c(=O)[nH]1 | > 200 µM | > 200 µM |  |
| CN(C)CCCCN1c2ccccc2Sc2ccc(C(=O)c3ccccc3)cc21 | > 200 µM | 6.61 µM |  |
| O=C(NNC(=S)Nc1cccc(Cl)c1)c1cc(-c2ccccc2)nc2ccccc12 | > 200 µM | 12 µM |  |
| O=[N+]([O-])c1ccc(NN=C(c2ccccc2)c2ccccc2)c([N+](=O)[O-])c1 | > 52.5 µM | > 52.5 µM |  |
| CNC(=O)C(C)Oc1ccc(OCC2CCCCC2)cc1 (stereo not drawn) | > 170 µM | 30.2 µM |  |
| COc1ccc(Nc2nc3c([nH]2)c(=O)n(C)c(=O)n3C)cc1 | > 200 µM | > 200 µM |  |
| C=CC1(C)CCC2C(C)(C)C(Br)CC[C@]2(C)O1 (stereo partly drawn) |  |  | inactive |
| OCCN1CCN(CCCN2c3ccccc3Sc3ccc(Cl)cc32)CC1 | > 200 µM | 10 µM |  |
| Clc1nc(Cl)nc(-c2ccccc2)n1 | > 200 µM | > 200 µM |  |
| ClCCCC1COc2ccccc2O1 (stereo not drawn) | > 200 µM | > 200 µM |  |
| COC(=O)CCC=C(c1cc(Cl)c(OC)c(C(=O)OC)c1)c1cc(Cl)c(OC)c(C(=O)OC)c1 | > 200 µM | 44.7 µM |  |
| Brc1ccc(C2=CSC3=NCCN23)cc1 | > 200 µM | 23.4 µM and 107 µM |  |
| O=C(NCCN1CCCCC1)c1ccc(Br)cc1 | > 200 µM | > 200 µM |  |
| O=C1CN(c2ccc(Cl)cc2)C(=O)CN1NCNN1CC(=O)N(c2ccc(Cl)cc2)CC1=O | > 200 µM | > 200 µM |  |

| SMILES | EC50 | IC50 | outcome |
| --- | --- | --- | --- |
| O=C(O)/C=C\C(=O)NNC(=O)/C=C\C(=O)O | > 1100 µM | > 1100 µM |  |
| O=C(Cc1ccccc1)N/N=C(/CCN1CCCC1)CC(c1ccccc1)c1c(O)c2ccccc2oc1=O (stereo not drawn) |  |  | inactive |
| Cc1ccc(S(=O)(=O)SCC(=O)c2ccc(Br)cc2)cc1 | 6.92 µM | 93.3 µM |  |
| O=C(O)/C=C\Sc1ccccc1C(=O)O | > 1120 µM | > 1120 µM |  |
| CCCCCCC(=O)C/C(CCC(=O)N(Cc1ccccc1)Cc1ccccc1)=N\NC(N)=O | > 38 µM | > 38 µM |  |
| CC(=O)NNC(=S)/N=C\c1c(O)[nH]c(=O)[nH]c1=O | > 200 µM | > 200 µM |  |
| C#CCOc1cc2c(c3oc(=O)cc(CCC)c13)[C@@H](O)[C@H](C)[C@@H](C)O2 | > 200 µM | > 200 µM |  |
| O=C1C2C(C(=O)N1c1ccccc1)C(c1ccccc1)N(c1ccccc1)C2c1ccccc1 (stereo not drawn) | > 22.4 µM | 15.8 µM |  |
| O=c1c2ccccc2nc(-c2ccccc2)n1NC(=S)Nc1ccc(Cl)cc1 | > 123 µM | 107 µM |  |
| COc1ccccc1/C=C/c1ccc2ccccc2n1 | > 200 µM | 38 µM |  |
| CC(=O)/C(=C/n1c(=S)[nH]c2ccccc21)C(=O)Nc1ccccc1C | > 200 µM | > 200 µM |  |
| COc1ccc(Cl)c(CCCCCCCC(=O)O)c1 | > 200 µM | > 200 µM |  |
| CCc1nc(N)nc(N)c1-c1ccc(Cl)c(Cl)c1 | > 200 µM | 1.45 µM |  |
| N#CCCCCn1cnc2c(N)ncnc21 | > 200 µM | > 200 µM |  |
| COc1ccc(S(=O)(=O)OC)cc1C(=O)c1cc(S(=O)(=O)OC)ccc1OC | > 23.4 µM | > 23.4 µM |  |
| Clc1ccc(OCCSCCCCCCCCCCSCCOc2ccc(Cl)cc2)cc1 | > 7.24 µM | > 7.24 µM |  |
| CC(C)N=c1sc(-c2ccccc2)c(C#N)c(=O)n1C(C)C | > 75.9 µM | 55 µM |  |
| COP(=O)(OC)/C(=C/c1cn(C(C)=O)c2ccccc12)NC(C)=O | > 200 µM | 17.4 µM |  |
| CC(=O)CC12NC(=O)N(C)N=C1N(C)C(=O)N(C)C2=O (stereo not drawn) | > 200 µM | 10.7 µM |  |
| O=C(Cn1c2c(c3ccccc31)CCCC2)NC1CCCCC1 | > 200 µM | > 200 µM |  |
| O=C(Nc1ccc(CC2=NCCCN2)cc1)c1ccc(C(=O)Nc2ccc(CC3=NCCCN3)cc2)cc1 | > 200 µM | 112 µM |  |

| SMILES | EC50 | IC50 | outcome |
| --- | --- | --- | --- |
| COCCCCCCCCCCCC(=O)OCC1OC(n2cc(C)c(=O)[nH]c2=O)CC1F (stereo not drawn) | 0.0112 µM | 0.2 µM |  |
| c1ccc(CC(c2ccccc2)N2CCOCC2)cc1 (stereo not drawn) |  |  | inactive |
| COc1cccc2c(N)c3cccc(C(=O)NCCN(C)C)c3nc12 | > 0.2 µM | 0.0331 µM |  |
| Cc1cc(Cl)ccc1NC(=O)C(=O)Cc1nc2ccc(C(=O)c3ccccc3)cc2[nH]c1=O | > 77.6 µM | > 77.6 µM |  |
| C=CCOCn1ccc(NC(=O)c2ccccc2)nc1=O | > 200 µM | > 200 µM |  |
| O=[N+]([O-])C(/C=C(\Cl)[N+](=O)[O-])=C(Nc1ccccc1)Nc1ccccc1 | > 200 µM | 6.61 µM |  |
| COC1=C(C2=C(OC)C(=O)c3cc4c(c(O)c3C2=O)C(=O)OC(C)C4)C(=O)c2c(cc3c(c2O)C(=O)OC(C)C3)C1=O (stereo not drawn) |  |  | inactive |
| O=[N+]([O-])c1cc(I)cc(/C=N/NS(=O)(=O)c2ccc(F)cc2)c1O | > 389 µM | 67.6 µM |  |
| Cc1ccc(N=N/C(=N/NC(=O)c2cc(Cl)ccc2C(=O)c2ccccc2)c2ccc(N(CCC#N)CCC#N)cc2C)cc1 | > 200 µM | 11.7 µM |  |
| COc1cc(-c2cc(OC)c(OC)c3ccc(Br)cc23)c2cc(Br)ccc2c1OC | > 200 µM | 102 µM |  |
| CC(=O)C1CCC2C1(C)CC1OC13C21C=CC2(CC(O)CCC23C)C2C(=O)OC(=O)C21 (stereo not drawn) | > 302 µM | > 302 µM |  |
| O=C(CSc1nnc(-c2ccc(N=Cc3ccc(Cl)cc3)cc2)o1)Nc1cccc(Cl)c1 | > 74.1 µM | > 74.1 µM |  |
| O=C1C2C(C(=O)N1Cc1ccccc1)N(Cc1ccccc1)C(=O)N2Cc1ccccc1 (stereo not drawn) | > 12.3 µM | > 12.3 µM |  |
| CC(O)=NC(Cc1ccc2ccccc2c1)C(O)=NC(Cc1ccc(Cl)cc1)C(O)=NC(Cc1c[nH]c2ccccc12)C(O)=NC(CO)C(O)=NC(Cc1ccc(O)cc1)C(O)=NC(CCCN=C(N)N)C(O)=NC(CC(C)C)C(O)=NC(CCCN=C(N)N)C(=O)N1CCCC1C(O)=NC(C)C(=N)O (stereo not drawn) | > 87.1 µM | > 87.1 µM |  |
| CCCc1nc(N)nc(C(=O)Nc2cccc(C(F)(F)F)c2)c1CC | > 708 µM | > 708 µM |  |
| COC(=O)c1ccc(NCc2cc(O)c3ccccc3c2O)cc1 | > 200 µM | 3.02 µM |  |
| COC(=O)C(Cc1c[nH]c2ccccc12)NC(=O)C(Cc1c[nH]c2ccccc12)NC(=O)C(Cc1c[nH]c2ccccc12)NC(=O)C(Cc1c[nH]c2ccccc12)NC(=O)C(Cc1c[nH]c2ccccc12)NC(=O)C(Cc1c[nH]c2ccccc12)NC(=O)OC(C)(C)C (stereo not drawn) (Boc-WWWWWW-OMe; configuration not given here) | > 100 µM | 60.3 µM |  |
| C[N+]1(C)CCCC(C#N)(c2ccccc2)CC1 (stereo not drawn) | > 813 µM |  |  |
| CC(=O)NCCSSCCCCSSCCNC(C)=O | > 200 µM | 95.5 µM |  |
| COC(=O)C(=O)C(CC(=O)Nc1ccc(C)cc1)C(=O)OC (stereo not drawn) | > 309 µM | > 309 µM |  |
| Cn1c2ccccc2c2nnc(NCCCCO)nc21 | > 200 µM | > 200 µM |  |

| SMILES | EC50 | IC50 | outcome |
| --- | --- | --- | --- |
| CCCCCCCCCC(=O)OCC1OC(n2cc(F)c(=O)[nH]c2=O)C(NC(=O)OCc2ccccc2)C(OC(=O)CCCCCCCCC)C1O (stereo not drawn) | > 9.77 µM | > 9.77 µM |  |
| O=Cc1ccccc1COC(=O)c1cc(C(=O)OCc2ccccc2C=O)c(C(=O)OCc2ccccc2C=O)cc1C(=O)OCc1ccccc1C=O | > 0.759 µM | > 0.759 µM |  |
| NC1=NC2(COC(c3ccccc3)(c3ccccc3)c3ccccc3)OC(COC(c3ccccc3)(c3ccccc3)c3ccccc3)C(O)C2O1 (stereo not drawn) | > 200 µM | 12 µM |  |
| COc1ccc(/C(CC2OC(=O)c3ccccc32)=N\NC(N)=O)cc1 (stereo not drawn) | > 339 µM | > 339 µM |  |
| O=C(O)CCSc1nnc(COc2ccc(Cl)cc2)n1-c1ccccc1 | > 200 µM | 67.6 µM |  |
| CC(C)N1CSC(=S)NCCNC(=S)SC1 | > 200 µM | 95.5 µM |  |
| O=[N+]([O-])c1ccc2ncccc2c1CCc1c([N+](=O)[O-])ccc2ncccc12 |  |  | inactive |
| CN(C)C=C(S(C)(=O)=O)S(C)(=O)=O | > 200 µM | 126 µM |  |
| COC(=O)CNC(=O)/C=C/[C@H](O[Si](C)(C)C(C)(C)C)[C@H](/C=C/C(=O)NCC(=O)OC)O[Si](C)(C)C(C)(C)C | > 25.1 µM | > 25.1 µM |  |
| COC(=O)C(C(=O)C(=O)Nc1nc2ccc([N+](=O)[O-])cc2s1)c1nc2ccc(Cl)cc2[nH]c1=O (stereo not drawn) | > 51.3 µM | > 51.3 µM |  |
| COc1ccc([C@H]2CC3C(=O)N(c4ccc(OC)cc4)C(=O)C3c3[nH]c4ccccc4c32)cc1 (stereo partly drawn) | > 1.66 µM | > 1.66 µM |  |
| CC(=O)OCC1OC(n2c(=S)n(-c3ccc([N+](=O)[O-])cc3)c(=O)c3ccccc32)C(OC(C)=O)C(OC(C)=O)C1OC(C)=O (stereo not drawn) | > 29.5 µM | > 29.5 µM |  |
| CSc1ccc(-c2cn3ccsc3n2)c(O)c1 | > 85.1 µM | 17.4 µM |  |
| O=S(Cc1ccccc1)/C(=C/NC(=S)N=Nc1c(O)[nH]c2ccccc12)c1ccccc1 (stereo not drawn) | 58.9 µM | 178 µM |  |
| COC(=N)CCCl | > 200 µM | > 200 µM |  |
| O=c1n(CCCN2CCOCC2)nc2n1-c1ccc3ccccc3c1SC2 | > 200 µM | 33.9 µM |  |
| Cn1c2c(c3ccccc31)C(=O)CC2(C)C | > 123 µM | 66.1 µM |  |
| COc1c(C)c(C/C=C(\C)CC/C=C(\C)CC/C=C(\C)CCC=C(C)C)c(OC)c(OC)c1OC | > 200 µM | > 200 µM |  |
| CC1CCN(SSc2nc3ccccc3s2)CC1 | 45.7 µM | 112 µM |  |
